Experimental data as given in patent US20190105261A1, “METHODS AND COMPOSITIONS FOR TOPICAL DELIVERY” (Illustris Pharmaceuticals, Inc., priority 2017, published 2019).

Legend:
[1] = 1% sildenafil, 12-20 hours
From the text: Replicates of mid-dermal grafts were employed in a transcutaneous flux rig per relevant protocols.

[2] = in vivo, po; cited from earlier work
[3] = Oral sildenafil bioavailability and assumed tissue concentration; conditions: assuming uniform tissue distribution, average 75 kg male
[4] = Sodium salicylate penetration into mid-dermal grafts, OD290 (Example 21); conditions: 1% sodium salicylate, 12-20 hours
Procedure: Replicates of mid-dermal grafts (grafts and punches for flux rig per Illustris sops), were employed in a transcutaneous flux rig per relevant protocols. […] Flux was continued for 12-20 hours with samples applied and left on donor surfaces.

[5] = Gabapentin delivery into porcine skin grafts, UPLC-MS; assay type: in vitro ADME; conditions: 1% gabapentin, 12-20 hours
Procedure: Delivery of gabapentin with hyaluronic acid into skin in vitro was measured using porcine skin grafts, and compared to delivery of gabapentin from a composition of gabapentin in saline (with no decoy molecule). Groups consisted of A) 1% gabapentin in saline (n=8 replicates), B) 1% gabapentin plus 1% sodium hyaluronate decoy of 3,000 Da in saline (n=8 replicates) or C) saline alone (n=8 replicates) in donor cells.
Briefly, tissues were incubated overnight in 0.5 mL of 50% acetonitrile in deionized water at 55° C. with agitation. Calibration standards and tissue extraction solvent samples were diluted 10× in deionized water before analysis. Diluted standards and samples were analyzed at 1 μL injection volumes. Concentrations were reported as μg/g of gabapentin in tissue.

[6] = 1 wt. % minocycline, in vitro
Procedure: Delivery of minocycline into porcine skin in vitro was measured and compared to delivery of minocycline from a composition of minocycline in saline (i.e, with no decoy molecule). Compositions were prepared containing of 1 wt. % minocycline and 1% of decoy molecule of hyaluronic acid with three molecular weights: 10,000 Da mean, 20,000 Da mean, and 30,000 Da mean. A control formulation containing 1 wt % minocycline in saline was also prepared

[7] = 12-20 hours
Procedure: Porcine buccal tissue was harvested and cleaned of additional tissue. Punch biopsies (n=4 each) were obtained and employed in a transcutaneous flux rig per relevant protocols. […] Flux was continued for 12-20 hours with samples applied and left on donor surfaces.

## CCCc1nn(C)c2c(=O)[nH]c(-c3cc(S(=O)(=O)N4CCN(C)CC4)ccc3OCC)nc12 [Sildenafil alone, sildenafil]
[1]
  sildenafil tissue concentration: not detectable
[2]
  bioavailability: 41%
[3]
  tissue concentration at currently approved therapeutic dose: 0.137 ug sildenafil per g of tissue

## O=C([O-])c1ccccc1O.[Na+] [Sodium salicylate, sodium salicylate]
[4]
  OD290 above saline (sodium salicylate in skin homogenate): 0.0165 AU

## NCC1(CC(=O)O)CCCCC1 [gabapentin alone, gabapentin]
[5]
  tissue levels of gabapentin: 0.09 μg of gabapentin per gram of tissue

## CN(C)c1ccc(O)c2c1C[C@H]1C[C@H]3[C@H](N(C)C)C(O)=C(C(N)=O)C(=O)[C@@]3(O)C(O)=C1C2=O [minocycline]
[6]
  penetration of minocycline into porcine skin: low native penetration

## O=C(O)c1ccccc1O [salicylate alone, salicylate]
[7]
  salicylate penetration through buccal tissue versus saline alone: not statistically significant over saline alone
